{"source": "paper PMC2856764", "about": "(Human immunology, 2010)", "assay_in_all_cases": "biochemical", "format_in_all_cases": "binding", "key": {"[1]": {"molecular_target": "HLA-B*5101 (Homo sapiens, UniProt P01889, A329T/A93T/A95T/C349S/D138N/D201E/D98Y/E187L/E204Q/E69T/G107R/I218V/K202T/L105A/L119W/N104I/Q94N/R106L/R155S/R180L/S101N/S121T/S35A/S48A/V306I/V36M/Y195H/Y91F)"}, "[2]": {"molecular_target": "HLA-B*5401 (Homo sapiens, UniProt P01889, A329T/C349S/D138N/D201E/E176V/E187T/E204Q/E69G/I76V/K202T/L119W/R155S/R180L/S121T/S35A/S48A/V127L/V306I/V36M/Y140L)"}, "[3]": {"molecular_target": "HLA-B*0702 (Homo sapiens, UniProt P01889)"}, "[4]": {"molecular_target": "HLA-B*3501 (Homo sapiens, UniProt P01889, A329T/A93T/A95T/C349S/D201E/D98Y/E176V/E187L/E204Q/E69T/I218V/K202T/L119I/Q94N/R155S/R180L/S121R/S35A/S48A/T118I/V127L/V306I/V36M/Y140S/Y91F)"}, "[5]": {"molecular_target": "HLA-B*5301 (Homo sapiens, UniProt P01889, A329T/A93T/A95T/C349S/D201E/D98Y/E176V/E187L/E204Q/E69T/G107R/I218V/K202T/L105A/L119I/N104I/Q94N/R106L/R155S/R180L/S101N/S121R/S35A/S48A/T118I/V127L/V306I/V36M/Y140S/Y91F)"}}, "note": "Ends that are not written are not given here.", "data": [{"sequence": "LPRRSGAAGA [NP.172]", "values": [{"measurement": "IC50", "setting": "[1]", "result": "> 10000", "unit": "nM"}, {"measurement": "IC50", "setting": "[2]", "result": 47, "unit": "nM"}, {"measurement": "IC50", "setting": "[3]", "result": 2, "unit": "nM"}, {"measurement": "IC50", "setting": "[4]", "result": "> 10000", "unit": "nM"}, {"measurement": "IC50", "setting": "[5]", "result": "> 10000", "unit": "nM"}]}]}
